Where “and” joins values, the source holds several entries; their conditions need not be identical. Identical values can stand only once. Ends that are not written are not given here.
Legend:
[1] = system: human erythrocytes; assay: Hemolytic activity assay; type: cell-based
Experimental: The hemolytic activity of each peptide was determined by the leakage of hemoglobin from human erythrocytes (obtained from Divbioscience, NL) as previously described (Oyama et al., 2017 Biofilms Microbiomes, Dec 1;3:33).
Briefly, human erythrocytes were washed 3 times with phosphate buffer saline (PBS) and concentrated using centrifugation at 800 g for 5 min. Human erythrocytes were then resuspended in PBS at a final concentration of 8 %. 100 µl of human erythrocytes were then added per well of sterile 96 well microplate already containing 15 µl of serially diluted antimicrobials (1:2 in distilled water). After 1 h at 37°C, the microplate was centrifuged at 800 g for 5 min. 100 µl were then carefully collected and transferred to a new 96 well microplate and OD was measured at 405 nm. Hemolysis caused by peptides was expressed as percentage of hemolysis; Triton-X100 at 0.1 % (v:v) was used as positive control and gave 100 % hemolysis. Hemolysis rate was determined as below: Hemolysis rate (%) = (A−A2)/(A1−A2) × 100% [formula] where A is the absorbance of indicator mixtures with different factors, A1 and A2 are the positive control, and the negative control, respectively.

[2] = system: S. aureus
[3] = system: E. coli
[4] = system: B. subtilis
[5] = system: A.baumani
[6] = system: Candida albicans
[7] = system: P. aeruginosa
[8] = system: Gram-positive and Gram-negative bacteria
[9] = system: HeLa TLR4/IL-8 Renilla Luciferase Reporter cell line; assay: Anti-inflammatory activity (LPS stimulation, luciferase reporter); type: cell-based; settings: 10 ng/mL LPS from P. aeruginosa; 6 h incubation; read-out: IC50 (inhibition of LPS effect)
Experimental: Anti-inflammatory activity of the peptides was determined using eLUCidate™ HeLa TLR4/IL-8 Renilla Luciferase Reporter cell line (obtained from ASMBIO). eLUCidate™ HeLa cells were cultivated according to manufacturer instructions. eLUCidate™ HeLa cells were seeded in 96 wells plates at an initial 50,000 cells/well. The next day, media from wells was empty and cells were exposed to LPS from P. aeruginosa (from Sigma Aldrich) diluted in culture media at a final concentration of 10 ng/ml in the presence of increasing concentrations of peptides. Polymyxin B (PMB, from Sigma Aldrich) was used as positive control. After 6 h incubation at 37°C in an incubator containing 5% CO2, wells were empty and cells were lysed in 70 µl of PBS containing 1% Triton X100 for 15 min on ice. 50 µl of cell lysats were then transferred to white 96 wells plates containing 50 µl of Renilla Luciferase substrate (Genofax A from Yelen, Marseille France). Luminescence intensities were measured using microplate reader (Synergy Mx, Biotek). The luminescence values were normalized by the controls (buffer treated cells) and expressed as percent of LPS stimulation. […]

[10] = system: E. coli; settings: Konno et al., Peptides 2006; cited from earlier work
[11] = system: P. aeruginosa; settings: Konno et al., Peptides 2006; cited from earlier work

ILKAIKKLLKN-NH2 [LTX-gallicune-1 (I1N11)]
hemolytic activity ([1]; at 1mM): not hemolytic | hemotoxicity: no toxicity towards red blood cells up to ([1]; highest concentration tested): > 10 mM | times less toxic (hemotoxic) than Gallicus-CP ([1]; human erythrocytes, Fig 3): 1000 times | MIC against S. aureus [2]: ≥ 100 µM | MIC (µM) E. coli [3]: 6.25 µM | MIC against E. coli [3]: > 50 µM | MIC against B. subtilis [4]: 6.25 µM | MIC (µM) A.baumani [5]: 100 µM | MIC against Candida albicans [6]: 50 µM

ILSAILGLLKNL-NH2 [Gallicus-CP(I1L12)]
50% MHC (concentration inducing 50% hemolysis of human erythrocytes) [1]: 10 µM | MIC (µM) P. aeruginosa [7]: 100 µM | minimal inhibitory concentration (MIC) [8]: 1.56 to 100 µM

Polymyxin B [PMB]
IC50 [9]: 57 nM and 57.6 nM

eumenitin
effective concentration against E. coli [10]: 6 µM | effective concentration against P. aeruginosa [11]: 30 µM

— patent publication EP3838286B1, “ANTIMICROBIAL PEPTIDE FROM POLISTES GALLICUS VENOM AND ITS ANALOGS” (Latoxan, priority 2019, dated 2021)
